The results in this text go back to US20240282989A1, “PHENOTHIAZINE DERIVATIVES AND REDOX-FLOW BATTERIES” (University of Kentucky Research Foundation, priority 2023, published 2024).

Usually solubility stands for the concentration that dissolves in the medium under given conditions.

What all share (assay type): physicochemical
Series [1] is described as follows: Cyclic voltammetry of monomer and dimer. Particulars: for 1st oxidation potential / ipa/ipc / peak separation: 1 mM in 0.1 M TEABF4/ACN; for redox event (number of electrons, reversibility) / oxidation potential: 10 mM solution; for redox event (number of electrons, reversibility): cyclic voltammetry; for ipa/ipc / peak separation: 1st oxidation; for oxidation potential: referenced to Fc/Fc+, glassy carbon working electrode. As for the experimental part:
The electrochemical stability and reversibility of redox-events were determined by cyclic voltammetry experiments, which were carried out in a CH Instrument potentiostat with glassy carbon electrode as a working electrode, Pt-wire electrode as a counter electrode and a silver electrode as a reference electrode. […]

Series [2] in a line: Cross-over experiments in custom-built H-cell with FAPQ-375-PP membrane. Particulars: 0.1 M redoxomer in anhydrous acetonitrile; two layers FAPQ-375-PP membrane; CV of blank side up to 24 h. The method, then: We compared cross-over fractions of our newly synthesized redoxomers with our previous redoxomers such as MEEPT and EPRT-TFSI using a custom-built H-cell. A stack of two layer of FAPQ-375-PP membrane pre-soaked in acetonitrile for 24 h was used as membrane between two compartments of H-cell. For each set of experiment, a 0.1 M solution of redoxomer in anhydrous acetonitrile on the left side and acetonitrile (blank solution) on the right side. The cross over fractions were determined by cyclic voltammetry of the solution from the blank side in 0 h, 2 h, 4 h, 8 h, 12 h, and 24 h in a argon-filled glovebox.

Series [3] can be described thus: Solubility / miscibility measurement (NMR method, internal standard). Particulars: for solubility: organic solvent or mixture, NMR method. The method, then: The MEEPRT-TFSI monomer is a viscous liquid at room temperature, the miscibility was determined in acetonitrile and 0.1 M TEATFSI in acetonitrile. In both solvents, it is miscible when mixed with 1:10, 10:1, and 1:1 ratio by wt. of acetonitrile:redoxomers. Solubility of redoxomers were determined by NMR method using 1,4-bis(trifluoromethyl)benzene as an internal standard.

`CC(CN1c2ccccc2Sc2ccccc21)[N+](C)(C)CCOCCOCC[N+](C)(C)C(C)CN1c2ccccc2Sc2ccccc21` (stereo not drawn) [EEEPRT-TFSI2]: in series [1], the 1st oxidation potential was found to be 0.54 V; the “redox event (number of electrons, reversibility)” value is recorded as “two-electron reversible redox event”; the ipa/ipc came to 1.06; the peak separation came out at 59 mV. Further, the oxidation potential result in series [1] is listed as “same potential”. The compound further showed a cross over fraction in series [2] of 0.0037. Besides, in series [3] (in 0.1 M TEATFSI in acetonitrile), the solubility was 1200 mM. Further, the solubility in series [3] (in acetonitrile) is 1600 mM.
Turning to `COCCOCC[N+](C)(C)C(C)CN1c2ccccc2Sc2ccccc21` (stereo not drawn) [MEEPRT-TFSI], in series [1], the 1st oxidation potential came out at 0.54 V; the “redox event (number of electrons, reversibility)” value is “single electron reversible redox reaction”; the ipa/ipc amounted to 1.06; the peak separation is 59 mV. Besides, the oxidation potential in series [1] turned out to be 0.54 V. In series [2], this compound gave a cross over fraction of 0.0346. Also, the miscibility result in series [3] (in 0.1 M TEATFSI in acetonitrile, 1:10, 10:1 and 1:1 ratio by wt.) is reported as “miscible”. Also, the miscibility entry in series [3] (in acetonitrile, 1:10, 10:1 and 1:1 ratio by wt. acetonitrile:redoxomers, room temperature) is reported as “miscible”.
Turning to `COCCOCCN1c2ccccc2Sc2ccccc21` [MEEPT, reference compound], in series [2], the cross over fraction turned out to be 0.0471.
For the compound `CC(C[N+]1c2ccccc2Sc2ccccc21)[N+](C)(C)CCOCCOCC[N+](C)(C)C(C)C[N+]1c2ccccc2Sc2ccccc21` (stereo not drawn) [dimer radical cation], in series [3] (in acetonitrile, 1:1, 10:1 and 1:10 by wt.), the “miscibility of radical cations” value is given as “completely miscible”.
